Values of other authors in US20120095087A1, “ENHANCED PRODUCTS BY SUSTAINABLE PROCESSES FOR MEDICINAL USE” (priority 2010, published 2012).

Tests used:
GPR55 = GPR55 (Homo sapiens, UniProt Q9Y2T6); details: putative new cannabinoid receptor
5-HT1A receptor = molecular target: T1, 5-HT1A receptor (Homo sapiens, UniProt P08908)
T1 sequence (P08908 1-422): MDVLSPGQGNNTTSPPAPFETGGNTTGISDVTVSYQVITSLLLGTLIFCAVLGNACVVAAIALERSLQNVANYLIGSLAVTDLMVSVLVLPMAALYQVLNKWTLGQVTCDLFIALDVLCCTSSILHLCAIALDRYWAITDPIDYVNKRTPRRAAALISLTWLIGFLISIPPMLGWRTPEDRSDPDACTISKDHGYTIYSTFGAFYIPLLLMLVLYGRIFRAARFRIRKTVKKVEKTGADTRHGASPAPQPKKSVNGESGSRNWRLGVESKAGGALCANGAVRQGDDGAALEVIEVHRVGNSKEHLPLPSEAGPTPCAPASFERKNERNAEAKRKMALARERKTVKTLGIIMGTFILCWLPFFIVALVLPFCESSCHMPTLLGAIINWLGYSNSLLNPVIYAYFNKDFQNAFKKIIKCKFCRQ

[1] = animal tests
cancer cell growth = details: low potency in non-cancer cells
CB2 receptors = CB2 receptors (Homo sapiens, UniProt P34972)
gene ID1 = details: in vitro

GPR55, sequence (Q9Y2T6 whole entry, species assumed): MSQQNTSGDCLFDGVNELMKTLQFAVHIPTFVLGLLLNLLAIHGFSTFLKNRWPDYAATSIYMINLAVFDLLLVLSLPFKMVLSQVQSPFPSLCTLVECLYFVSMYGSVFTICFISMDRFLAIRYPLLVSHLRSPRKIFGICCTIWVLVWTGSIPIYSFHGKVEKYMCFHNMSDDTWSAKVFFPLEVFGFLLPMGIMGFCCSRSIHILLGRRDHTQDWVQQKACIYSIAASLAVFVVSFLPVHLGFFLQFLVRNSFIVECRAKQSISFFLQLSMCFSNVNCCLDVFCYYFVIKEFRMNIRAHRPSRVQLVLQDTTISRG
CB2 receptors, sequence (P34972 whole entry): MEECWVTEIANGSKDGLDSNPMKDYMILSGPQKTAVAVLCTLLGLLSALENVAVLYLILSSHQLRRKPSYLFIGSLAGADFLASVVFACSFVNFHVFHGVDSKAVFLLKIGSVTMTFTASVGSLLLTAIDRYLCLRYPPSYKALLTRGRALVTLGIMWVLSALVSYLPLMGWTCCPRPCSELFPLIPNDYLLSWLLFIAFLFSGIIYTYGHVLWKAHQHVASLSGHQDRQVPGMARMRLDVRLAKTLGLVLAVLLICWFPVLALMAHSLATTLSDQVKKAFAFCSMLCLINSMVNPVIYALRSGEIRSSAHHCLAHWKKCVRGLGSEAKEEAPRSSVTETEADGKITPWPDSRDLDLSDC

Row | SMILES | action at GPR55 (GPR55) | action at 5-HT1A receptor (5-HT1A receptor) | sedative effects [1] | cancer cell growth (cancer cell growth) | affinity for CB2 receptors (CB2 receptors) | activity of the gene ID1 (gene ID1) | potency relative to THC
1 | C=C(C)[C@@H]1CCC(C)=C[C@H]1c1c(O)cc(CCCCC)cc1O [Cannabidiol, cannabidiol] | antagonist | agonist | sedative effects | inhibit cancer cell growth | no affinity | downregulates | 
2 | CCCCCCC(C)(C)c1cc(O)c2c(c1)OC(C)(C)[C@@H]1CC=C(CO)C[C@@H]21 [HU-210] |  |  |  |  |  |  | about 100 times
